Measured values: US7241731B2, “Oligopeptides for promoting hair growth” (Sumitomo Electric Industries, Ltd., priority 2000, dated 2007)
Bridge positions count the residues as written; N and C are the ends. Primed or numbered codes have the meaning given here. Ends that are not written are not given here. I, II: the chains in the order shown. * marks the point of attachment. Biotin = O=C1N[C@H]2[C@H](CS[C@H]2CCCCC(=O)*)N1; BMH′ = not defined here

Key:
[1] = tested on: Human keratinocytes (NHEK cell), IL-8 secretion; assay: IL-8 secretion by NHEK cells (ELISA); assay type: cell-based; settings: for IL-8 inducing activity: Table IV, 50 μg/ml, symbols not defined; for IL-8 inducing activity / secretion amount of IL-8: 16–20 hours; for secretion amount of IL-8: FIG. 8, 50 μg/ml, deletion variants of b7
Protocol: Human keratinocytes (NHEK cell, Clonetics, available from Sanko Jyun-yaku, Ltd.) were cultivated in a medium for proliferation (Clontics) comprising 30 μg/ml BPE, 0.1 ng/ml human EGF, 5 μg/ml insulin, 0.5 μg/ml hydrocortisone, 50 μg/ml gentamycin, and 50 ng/ml amphoterin. These cells were re-suspended at the concentration of 1×10^4 cells/ml in a medium wherein EGF, insulin, and hydrocortisone were removed from the above medium for proliferation, and then 100 μl of the suspension was placed on each well of a 96-well plate. At the same time of the plating of the cells, 5 μl of 1 mg/ml oligopeptide was added to the suspension so as to be final concentration of 50 μg/ml. After cultivation for 16–20 hours, the amount of IL-8 in the culture supernatants was measured by ELISA kit (ENDOGEN).

[2] = tested on: transition from telogen to anagen (hair cycle); assay: Evaluation of hair growth promoting activity by in vivo method (shaved telogen mice, hair growth score); parameters: species or system C57BL/6 mice; settings: for hair restoration compared with the control group (hair growth score): topical application until 38th day, FIGS. 6 and 7; for Hair growth Activity: Table IV, symbols not defined
Protocol: C3H and C57BL/6 mice are known to have sustained telogen for about 50 days from the 45th day after the birth to around the 95th day. Their hair cycle is easily judged based on the skin color changes, i.e., from pink in telogen to gray or black in anagen. A test for evaluating whether or not the administration the oligopeptides of the present invention promotes the transition from telogen to anagen was carried out using the mice. Seven weeks old (48 to 50-day old, female) C57BL/6 mice were purchased and hair of the back (about 3×2.5 cm^2) was carefully shaved with electric clippers for animals so as not to injure the skin, and the hair cycle was confirmed to be in telogen from the skin color. The oligopeptide solution prepared above was applied to five mice in each group, once a day and 5 days in a week in the amount of 0.2 ml until 38th day from the start of the test. The application was carried out by using a syringe without needle. Dipeptide (Ile-Lys) and tripeptide (Glu-Ile-Lys) of which N-terminal is biotinylated were mixed, and then added with the cross-linking agent to prepare a control solution.
Plural persons (two persons) observed the mice twice a week by naked eye for evaluation, and gave a 6-graded score depending on a ratio of hair restoration area based on the hair shaved area. At the same time, photographs were taken. Hair growth scores were calculated as follows. At first, the following score was given depending on a ratio of areas where the skin color changes to gray or black in the hair shaved area; 0–20%: 1, 20–40%: 2, 40–60%: 3, 60–80%:4, 80–100%: 5. The sum of the above scores in each group was determined as the hair growth score. The maximum value of the hair growth score of each group was 50 for each of the persons for judgment, and the maximum value of hair growth score was 100 because the judgment was made by two persons.

[3] = tested on: antigen of about 220 kDa present in new follicle (antigen of mAb27); assay: Skin tissues of maxilla of ICR mice incubated with test oligopeptide, Western blot with mAb 27; assay type: cell-based; settings: for hair growth promoting activity (mAb 27 band stronger than control): Example 10, FIG. 4 and 5, BMH-treated oligopeptides of Example 9, 20 μCM
Protocol: The skin tissues of maxilla of ICR mice (pregnancy 12 days) were collected by stereoscopic microscope, and left and right sides were respectively recovered from 5 mice. 5 pieces of each of the thus collected left (for control) and right (for test oligopeptides) skins from 5 mice were respectively placed on 1 nuclepore membrane (pore diameter 8 μm; diameter 13 mm), and were set in such a way that the outside upturns by observing the samples with stereoscopic microscope. 500 μl of Dulbecco's MEM/Ham F12 medium containing 1% BSA was added to 2 wells of 24 well dish. The test oligopeptide in a solvent (PBS) was added in a final concentration of 20 μCM to one well, and solvent (PBS) was added in the same amount to the other well as a control. The oligopeptides synthesized in Example 9 were used as the test oligopeptides.
(§1) Each membrane having skin tissues thereon was launched on the solution in the above wells, and was incubated at 37° C. for 6 days. 5 pieces of tissue were recovered from the membrane into 100 μl of SDS sample buffer (SDS 0.02 g/ml, glycerol 0.2 g/ml, pH6.8), and dissolved by ultrasonic treatment. The control membrane was also treated similarly. The solution obtained by such a treatment was subjected to electrophoresis (35 mA, 1.5 hour) in SDS-PAGE (acrylamide 4–20%), and transferred to PVDF membrane, and incubated in Tris buffer containing 5% skim milk (TBST) for 1 hour. The membrane was reacted with mAb 27 (10 μg/ml in TBST) obtained in Example 2 for 1 hour, and was washed well with TBS. Then, peroxidase labeled anti-rat IgG (Amersham) (1/1000 diluted in TBST) was reacted as the second antibody, and the membrane was washed well with TBS. The intensity of the reaction of mAb 27 was examined using ECL kit (Amersham).
The skin tissues of maxilla of ICR mice (pregnancy 12 days) were collected by stereoscopic microscope, and left and right sides were respectively recovered from 5 mice. 5 pieces of each of the thus collected left (for control) and right (for test oligopeptides) skins from 5 mice were respectively placed on 1 nuclepore membrane (pore diameter 8 μm; diameter 13 mm), and were set in such a way that the outside upturns by observing the samples with stereoscopic microscope. 500 μl of Dalbecco's MEM/Ham F12 medium containing 1% BSA was added to 2 wells of 24 well dish. The test oligopeptide in a solvent (PBS) was added in a final concentration of 20 μM to one well, and solvent (PBS) was added in the same amount to the other well as a control. The unmodified and modified oligopeptides synthesized in the above (1) were used as the test oligopeptides.
as §1, with “Example 6” for “Example 2”
The skin tissues of maxilla of ICR mice (pregnancy 12 days) were collected by stereoscopic microscope, and left and right sides were respectively recovered from 5 mice. […]

[4] = cited from earlier work
[5] = Example 11, position of Cys altered, synthesized as in Example 9

## Lys-Ser-Ile-Glu-Gln-Ser-Cys-Asp-Gln-Asp-Glu (Biotin-KSIEQSCDQDE) [bk7]
[1]; FIG. 9, Examples 17 and 18
  IL-8 inducing activity compared with oligopeptide b7: almost the same IL-8 inducing activity as that of oligopeptide b7

## b7: modified oligopeptide having biotin at the N-terminus of Ser-Ile-Glu-Gln-Ser-Cys-Asp-Gln-Asp-Glu (SEQ ID NO:84) (Biotin-SIEQSCDQDE)
[2]; C57BL/6 mice
  hair restoration compared with the control group (hair growth score): hair restoration was promoted until about 30 days from the start of the test
[2]
  Hair growth Activity: ◯
[1]
  IL-8 inducing activity: ⊚

## SIEQCSDQDE [oligopeptide (A)]
[3]; 6 days
  hair growth promoting activity (mAb 27 band stronger than control): have a hair growth promoting activity

## heterodimer oligopeptide: heterodimer made with BMH from two different oligopeptides; b464 names SEQ ID NO:87 and SEQ ID NO:4, b490 oligopeptides (A) and (B) (chain 1 SIEQSCD; chain 2 SIEQCSD; linker I:6-II:5 via BMH′ (inferred))
[3]; 6 days
  hair growth promoting activity (mAb 27 band stronger than control): had also a hair growth promoting activity

## SIEQS (Biotin-SIEQS) [b7ΔC5]
[1]
  secretion amount of IL-8: significantly decreased

## SIEQCSD [SEQ ID NO:4]
[3]; [5]
  hair growth promoting activity: showed a hair growth promoting activity

## SIEQSCDQ (Biotin-SIEQSCDQ; also: Cys sulfhydryl blocked (group not given here)) [b7ΔC2]
[1]
  secretion amount of IL-8: maintained

## SIEQSCDQDE [SEQ ID NO:84]
[2]; conclusion of Example 15
  hair growth promoting activity: has hair growth promoting activity

## SIECQSD [SEQ ID NO:5]
[3]; [5]
  hair growth promoting activity: showed a hair growth promoting activity

## SIEQSCDQD (Biotin-SIEQSCDQD; also: sulfhydryl blocked) [b7ΔC1]
[1]
  secretion amount of IL-8: maintained

## EQSCDQDE (Biotin-EQSCDQDE) [b7ΔN2]
[1]
  secretion amount of IL-8: slightly decreased

## SICEQSDQDE [oligopeptide (C)]
[3]; 6 days
  hair growth promoting activity (mAb 27 band stronger than control): have a hair growth promoting activity

## ss7: S-S bridged oligopeptide prepared by reacting the oligopeptide (SEQ ID NO:84 series) with BMH; elsewhere called S-S bridged and biotinylated (SIEQSCDQDE; also: BMH cross-linked dimer, Cys attachment not placed, biotinylated, site not given here)
[2]; C57BL/6 mice, 0.2 ml of oligopeptide solution (0.15 mg/ml, 50% ethanol/PBS) once a day, 5 days in a week
  transition to anagen earlier than the control group: ≥ 7 days
[2]; C57BL/6 mice
  hair restoration compared with the control group (hair growth score): hair restoration was promoted at any time until the hair grew and restored almost completely
[2]
  Hair growth Activity: ⊚
[3]; Example 16
  hair growth promoting activity: has hair growth promoting activity
[3]; Example 16, FIG. 13, 20 μM, 6 days
  band of mAb27 antigen versus control: a stronger band was detected
[1]
  IL-8 inducing activity: ⊚

## SIEQSCD (Biotin-SIEQSCD; also: Cys sulfhydryl blocked (group not given here)) [b7ΔC3]
[1]
  secretion amount of IL-8: maintained

## IEQSCDQDE (Biotin-IEQSCDQDE) [b7ΔN1]
[1]
  secretion amount of IL-8: slightly decreased

## SIEQSC (Biotin-SIEQSC; also: Cys sulfhydryl blocked (group not given here)) [b7ΔC4]
[1]
  secretion amount of IL-8: maintained

## SICEQSD [SEQ ID NO:6]
[3]; [5]
  hair growth promoting activity: showed a hair growth promoting activity

## QSCDQDE (Biotin-QSCDQDE) [b7ΔN3]
[1]
  secretion amount of IL-8: slightly decreased

## SIECQSDQ [oligopeptide (D)]
[3]; 6 days
  hair growth promoting activity (mAb 27 band stronger than control): had a hair growth promoting activity

## SIECQSDQDE [oligopeptide (B)]
[3]; 6 days
  hair growth promoting activity (mAb 27 band stronger than control): have a hair growth promoting activity

B1: Native mammalian epimorphin: protein of 277 to 289 amino acids promoting the morphogenesis of epithelial tissue (protein, UniProt P32856 1-288, looked up)
Syntaxin-2: MRDRLPDLTACRKNDDGDTVVVVEKDHFMDDFFHQVEEIRNSIDKITQYVEEVKKNHSIILSAPNPEGKIKEELEDLNKEIKKTANKIRAKLKAIEQSFDQDESGNRTSVDLRIRRTQHSVLSRKFVEAMAEYNEAQTLFRERSKGRIQRQLEITGRTTTDDELEEMLESGKPSIFTSDIISDSQITRQALNEIESRHKDIMKLETSIRELHEMFMDMAMFVETQGEMINNIERNVMNATDYVEHAKEETKKAIKYQSKARRKKWIIIAVSVVLVAIIALIIGLSVGK
[4]
  solubility in aqueous media such as saline: almost insoluble
